Experimental data: the NIST ThermoML archive (doi:10.1016/j.tca.2013.08.031)

Experiment: molar heat capacity at constant volume
Conditions: Fluid (supercritical or subcritical phases), Vacuum adiabatic calorimetry

CCC(C)O (stereo not given) [butan-2-ol]
Conditions | molar heat capacity at constant volume [J/K/mol]
307.37 K, Mass density=794.06 kg/m3 | 167.81
307.62 K, Mass density=794.06 kg/m3 | 154.62
307.87 K, Mass density=794.06 kg/m3 | 157.58
308.12 K, Mass density=794.06 kg/m3 | 160.7
308.37 K, Mass density=794.06 kg/m3 | 163.88
308.62 K, Mass density=794.06 kg/m3 | 165.44
308.87 K, Mass density=794.06 kg/m3 | 167.74
309.12 K, Mass density=794.06 kg/m3 | 167.81
309.37 K, Mass density=794.06 kg/m3 | 168.4
309.62 K, Mass density=794.06 kg/m3 | 167.22
311.11 K, Mass density=794.06 kg/m3 | 182.78
321.67 K, Mass density=794.06 kg/m3 | 204.87
323.61 K, Mass density=794.06 kg/m3 | 208.36
323.85 K, Mass density=794.06 kg/m3 | 208.87
324.09 K, Mass density=794.06 kg/m3 | 208.06
324.33 K, Mass density=794.06 kg/m3 | 208.8
324.57 K, Mass density=794.06 kg/m3 | 208.8
324.81 K, Mass density=794.06 kg/m3 | 207.99
325.06 K, Mass density=794.06 kg/m3 | 209.76
325.3 K, Mass density=794.06 kg/m3 | 210.43
325.54 K, Mass density=794.06 kg/m3 | 211.25
325.78 K, Mass density=769.05 kg/m3 | 223.77
325.78 K, Mass density=794.06 kg/m3 | 210.73
326.02 K, Mass density=769.05 kg/m3 | 224.88
326.02 K, Mass density=794.06 kg/m3 | 211.32
326.26 K, Mass density=769.05 kg/m3 | 226.22
326.26 K, Mass density=794.06 kg/m3 | 213.03
326.5 K, Mass density=769.05 kg/m3 | 226.29
326.74 K, Mass density=769.05 kg/m3 | 227.11
326.98 K, Mass density=769.05 kg/m3 | 226.59
327.22 K, Mass density=769.05 kg/m3 | 226.59
327.22 K, Mass density=794.06 kg/m3 | 213.54
327.46 K, Mass density=794.06 kg/m3 | 212.51
327.7 K, Mass density=794.06 kg/m3 | 212.8
327.94 K, Mass density=794.06 kg/m3 | 212.73
328.18 K, Mass density=794.06 kg/m3 | 212.43
333.2 K, Mass density=769.05 kg/m3 | 231.33
333.44 K, Mass density=769.05 kg/m3 | 232.45
333.67 K, Mass density=769.05 kg/m3 | 231.78
333.91 K, Mass density=769.05 kg/m3 | 232.59
334.15 K, Mass density=769.05 kg/m3 | 232.82
334.39 K, Mass density=769.05 kg/m3 | 233.04
334.62 K, Mass density=769.05 kg/m3 | 232.82
334.86 K, Mass density=769.05 kg/m3 | 233.63
335.1 K, Mass density=769.05 kg/m3 | 234.15
335.33 K, Mass density=769.05 kg/m3 | 233.41
335.57 K, Mass density=769.05 kg/m3 | 225.63
335.81 K, Mass density=769.05 kg/m3 | 219.55
336.04 K, Mass density=769.05 kg/m3 | 213.77
336.28 K, Mass density=769.05 kg/m3 | 209.39
336.52 K, Mass density=769.05 kg/m3 | 207.32
336.75 K, Mass density=769.05 kg/m3 | 207.02
337.46 K, Mass density=769.05 kg/m3 | 204.72
337.93 K, Mass density=769.05 kg/m3 | 204.8
338.64 K, Mass density=769.05 kg/m3 | 204.35
339.34 K, Mass density=769.05 kg/m3 | 203.76
349.82 K, Mass density=735.98 kg/m3 | 241.34
350.05 K, Mass density=735.98 kg/m3 | 242.01
350.28 K, Mass density=735.98 kg/m3 | 243.56
350.51 K, Mass density=735.98 kg/m3 | 243.19
350.74 K, Mass density=735.98 kg/m3 | 243.49
352.35 K, Mass density=769.05 kg/m3 | 218.36
352.58 K, Mass density=769.05 kg/m3 | 219.99
353.27 K, Mass density=735.98 kg/m3 | 242.23
353.49 K, Mass density=735.98 kg/m3 | 245.19
353.72 K, Mass density=735.98 kg/m3 | 244.68
353.95 K, Mass density=735.98 kg/m3 | 243.34
354.18 K, Mass density=735.98 kg/m3 | 245.12
354.41 K, Mass density=735.98 kg/m3 | 243.86
354.64 K, Mass density=735.98 kg/m3 | 245.56
364.16 K, Mass density=735.98 kg/m3 | 251.2
364.39 K, Mass density=735.98 kg/m3 | 251.35
364.61 K, Mass density=735.98 kg/m3 | 252.01
364.84 K, Mass density=735.98 kg/m3 | 252.16
365.06 K, Mass density=735.98 kg/m3 | 251.79
365.29 K, Mass density=735.98 kg/m3 | 251.79
365.51 K, Mass density=735.98 kg/m3 | 252.01
366.41 K, Mass density=735.98 kg/m3 | 253.2
366.63 K, Mass density=735.98 kg/m3 | 248.46
366.86 K, Mass density=735.98 kg/m3 | 245.27
367.08 K, Mass density=735.98 kg/m3 | 226.44
367.31 K, Mass density=735.98 kg/m3 | 219.84
367.53 K, Mass density=735.98 kg/m3 | 215.18
367.75 K, Mass density=735.98 kg/m3 | 213.69
367.98 K, Mass density=735.98 kg/m3 | 212.88
368.2 K, Mass density=735.98 kg/m3 | 213.25
369.54 K, Mass density=735.98 kg/m3 | 213.69
369.76 K, Mass density=735.98 kg/m3 | 214.43
369.99 K, Mass density=735.98 kg/m3 | 214.66
371.32 K, Mass density=683.53 kg/m3 | 261.13
371.54 K, Mass density=683.53 kg/m3 | 261.43
371.77 K, Mass density=683.53 kg/m3 | 261.72
371.99 K, Mass density=683.53 kg/m3 | 263.06
372.21 K, Mass density=683.53 kg/m3 | 263.95
372.43 K, Mass density=683.53 kg/m3 | 260.76
372.65 K, Mass density=683.53 kg/m3 | 259.87
373.1 K, Mass density=735.98 kg/m3 | 216.29
373.32 K, Mass density=735.98 kg/m3 | 217.25
373.54 K, Mass density=735.98 kg/m3 | 217.99
373.76 K, Mass density=735.98 kg/m3 | 219.7
373.98 K, Mass density=735.98 kg/m3 | 219.03
374.21 K, Mass density=735.98 kg/m3 | 216.66
374.43 K, Mass density=735.98 kg/m3 | 217.4
374.65 K, Mass density=735.98 kg/m3 | 217.47
374.87 K, Mass density=735.98 kg/m3 | 218.51
